Laboratory results taken from PubChem BioAssay AID1963868 (Molecular Pharmacology Branch, DTP, NCI, 2024).

Tested on: KRAS PDC tumor spheroids (HUVEC+MSC), viability
Assay: Anticancer human tumor 254851-301-R-J1-PDC patient-derived colon carcinoma cell line growth inhibition [KRAS2]
Conditions: for IC50: curve of first compound; for viability, T/C: stronger effect = lower value
Procedure, shortened: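 KRAS-mutant tumor cells were grown as spheroids with HUVEC endothelial cells and human MSCs as stroma. Targeted agents were tested alone and with KRAS pathway inhibitors. Doses started at or near clinical Cmax, or 10 microM, descending half-log.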

[1] = second compound 0.1 µM, first compound 0.01 µM
[2] = second compound 0.1 µM, first compound 0.0316 µM
[3] = second compound 0.1 µM, first compound 0.1 µM
[4] = second compound 0.1 µM, first compound 0.316 µM
[5] = second compound 0.1 µM, first compound 1 µM
[6] = second compound 0.1 µM, first compound 3.16 µM
[7] = second compound 0.316 µM, first compound 0.01 µM
[8] = second compound 0.316 µM, first compound 0.0316 µM
[9] = second compound 0.316 µM, first compound 0.1 µM
[10] = second compound 0.316 µM, first compound 0.316 µM
[11] = second compound 0.316 µM, first compound 1 µM
[12] = second compound 0.316 µM, first compound 3.16 µM
[13] = second compound 1 µM, first compound 0.01 µM
[14] = second compound 1 µM, first compound 0.0316 µM
[15] = second compound 1 µM, first compound 0.1 µM
[16] = second compound 1 µM, first compound 0.316 µM
[17] = second compound 1 µM, first compound 1 µM
[18] = second compound 1 µM, first compound 3.16 µM
[19] = second compound 3.16 µM, first compound 0.01 µM
[20] = second compound 3.16 µM, first compound 0.0316 µM
[21] = second compound 3.16 µM, first compound 0.1 µM
[22] = second compound 3.16 µM, first compound 0.316 µM
[23] = second compound 3.16 µM, first compound 1 µM
[24] = second compound 3.16 µM, first compound 3.16 µM
[25] = second compound 10 µM, first compound 0.01 µM
[26] = second compound 10 µM, first compound 0.0316 µM
[27] = second compound 10 µM, first compound 0.1 µM
[28] = second compound 10 µM, first compound 0.316 µM
[29] = second compound 10 µM, first compound 1 µM
[30] = second compound 10 µM, first compound 3.16 µM
[31] = second compound 0.1 µM, first compound 10 µM
[32] = second compound 0.316 µM, first compound 10 µM
[33] = second compound 1 µM, first compound 10 µM
[34] = second compound 3.16 µM, first compound 10 µM
[35] = second compound 10 µM, first compound 10 µM
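Also: spheroids exposed to compounds for seven days before readout.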
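For viability, T/C in this document: 100% = DMSO vehicle control luminescence of the spheroids.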

Compound: CC(=O)OC12COC1CC(O)C1(C)C(=O)C(O)C3=C(C)C(OC(=O)C(O)C(NC(=O)OC(C)(C)C)c4ccccc4)CC(O)(C(OC(=O)c4ccccc4)C21)C3(C)C (stereo not given) + CNCc1ccccc1-c1csc(C(C)Nc2nc(C)nc3cc(OC)c(OC)cc23)c1
- IC50 (second compound 0.1 µM): 176 nM
- IC50 (second compound 0.316 µM): 126 nM
- IC50 (second compound 1 µM): 184 nM
- IC50 (second compound 3.16 µM): 22.7 nM
- IC50 (second compound 10 µM): < 10 nM
- viability, T/C [1]: 101%
- viability, T/C [2]: 86.3%
- viability, T/C [3]: 62.6%
- viability, T/C [4]: 37.7%
- viability, T/C [5]: 26.1%
- viability, T/C [6]: 25.3%
- viability, T/C [7]: 90%
- viability, T/C [8]: 79.9%
- viability, T/C [9]: 55.7%
- viability, T/C [10]: 30.4%
- viability, T/C [11]: 25.5%
- viability, T/C [12]: 25.4%
- viability, T/C [13]: 81.3%
- viability, T/C [14]: 80.5%
- viability, T/C [15]: 61.5%
- viability, T/C [16]: 39.8%
- viability, T/C [17]: 25.3%
- viability, T/C [18]: 24%
- viability, T/C [19]: 77%
- viability, T/C [20]: 38.9%
- viability, T/C [21]: 9.76%
- viability, T/C [22]: 13.6%
- viability, T/C [23]: 0.92%
- viability, T/C [24]: 23.3%
- viability, T/C [25]: 1.07%
- viability, T/C [26]: 0.14%
- viability, T/C [27]: 1.91%
- viability, T/C [28]: 0.55%
- viability, T/C [29]: 24.2%
- viability, T/C [30]: 0.21%

Compound: CN(C)C/C=C/C(=O)Nc1cc2c(Nc3ccc(F)c(Cl)c3)ncnc2cc1O[C@H]1CCOC1 + CNCc1ccccc1-c1csc(C(C)Nc2nc(C)nc3cc(OC)c(OC)cc23)c1
- IC50 (second compound 0.1 µM): > 100 nM
- IC50 (second compound 0.316 µM): > 100 nM
- IC50 (second compound 1 µM): > 100 nM
- IC50 (second compound 3.16 µM): > 100 nM
- IC50 (second compound 10 µM): < 0.316 nM
- viability, T/C (second compound 0.1 µM, first compound 0.000316 µM): 99.9%
- viability, T/C (second compound 0.1 µM, first compound 0.001 µM): 105%
- viability, T/C (second compound 0.1 µM, first compound 0.00316 µM): 96.4%
- viability, T/C [1]: 94.7%
- viability, T/C [2]: 93.1%
- viability, T/C [3]: 72.8%
- viability, T/C (second compound 0.316 µM, first compound 0.000316 µM): 104%
- viability, T/C (second compound 0.316 µM, first compound 0.001 µM): 98.3%
- viability, T/C (second compound 0.316 µM, first compound 0.00316 µM): 90.4%
- viability, T/C [7]: 87.9%
- viability, T/C [8]: 82.8%
- viability, T/C [9]: 72.3%
- viability, T/C (second compound 1 µM, first compound 0.000316 µM): 97.1%
- viability, T/C (second compound 1 µM, first compound 0.001 µM): 89.2%
- viability, T/C (second compound 1 µM, first compound 0.00316 µM): 84.6%
- viability, T/C [13]: 82%
- viability, T/C [14]: 75.5%
- viability, T/C [15]: 79.9%
- viability, T/C (second compound 3.16 µM, first compound 0.000316 µM): 84%
- viability, T/C (second compound 3.16 µM, first compound 0.001 µM): 82.1%
- viability, T/C (second compound 3.16 µM, first compound 0.00316 µM): 81.8%
- viability, T/C [19]: 75.1%
- viability, T/C [20]: 73.8%
- viability, T/C [21]: 62.2%
- viability, T/C (second compound 10 µM, first compound 0.000316 µM): 0.17%
- viability, T/C (second compound 10 µM, first compound 0.001 µM): 0.18%
- viability, T/C (second compound 10 µM, first compound 0.00316 µM): 0.18%
- viability, T/C [25]: 0.16%
- viability, T/C [26]: 0.17%
- viability, T/C [27]: 0.21%

Compound: COC(=O)c1ccc2c(C(=Nc3ccc(N(C)C(=O)CN4CCN(C)CC4)cc3)c3ccccc3)c(O)[nH]c2c1 + CNCc1ccccc1-c1csc(C(C)Nc2nc(C)nc3cc(OC)c(OC)cc23)c1
- IC50 (second compound 0.1 µM): > 10000 nM
- IC50 (second compound 0.316 µM): > 10000 nM
- IC50 (second compound 1 µM): > 10000 nM
- IC50 (second compound 3.16 µM): 378 nM
- IC50 (second compound 10 µM): < 31.6 nM
- viability, T/C [2]: 101%
- viability, T/C [3]: 94.3%
- viability, T/C [4]: 96.3%
- viability, T/C [5]: 91%
- viability, T/C [6]: 83.9%
- viability, T/C [31]: 95.9%
- viability, T/C [8]: 93.1%
- viability, T/C [9]: 93.6%
- viability, T/C [10]: 91.9%
- viability, T/C [11]: 87%
- viability, T/C [12]: 77.4%
- viability, T/C [32]: 86.2%
- viability, T/C [14]: 91.8%
- viability, T/C [15]: 96.5%
- viability, T/C [16]: 84.8%
- viability, T/C [17]: 79.9%
- viability, T/C [18]: 69.2%
- viability, T/C [33]: 59%
- viability, T/C [20]: 63.6%
- viability, T/C [21]: 70.2%
- viability, T/C [22]: 58.8%
- viability, T/C [23]: 2.44%
- viability, T/C [24]: 0.21%
- viability, T/C [34]: 0.68%
- viability, T/C [26]: 0.16%
- viability, T/C [27]: 0.16%
- viability, T/C [28]: 0.25%
- viability, T/C [29]: 0.11%
- viability, T/C [30]: 0.1%
- viability, T/C [35]: 0.16%

Compound: O=C(c1cc(Cc2n[nH]c(=O)c3ccccc23)ccc1F)N1CCN(C(=O)C2CC2)CC1 + CNCc1ccccc1-c1csc(C(C)Nc2nc(C)nc3cc(OC)c(OC)cc23)c1
- IC50 (second compound 0.1 µM): > 10000 nM
- IC50 (second compound 0.316 µM): > 10000 nM
- IC50 (second compound 1 µM): > 10000 nM
- IC50 (second compound 3.16 µM): > 10000 nM
- IC50 (second compound 10 µM): < 31.6 nM
- viability, T/C [2]: 101%
- viability, T/C [3]: 109%
- viability, T/C [4]: 104%
- viability, T/C [5]: 108%
- viability, T/C [6]: 113%
- viability, T/C [31]: 105%
- viability, T/C [8]: 107%
- viability, T/C [9]: 108%
- viability, T/C [10]: 107%
- viability, T/C [11]: 109%
- viability, T/C [12]: 104%
- viability, T/C [32]: 105%
- viability, T/C [14]: 116%
- viability, T/C [15]: 109%
- viability, T/C [16]: 103%
- viability, T/C [17]: 110%
- viability, T/C [18]: 105%
- viability, T/C [33]: 103%
- viability, T/C [20]: 79.6%
- viability, T/C [21]: 97.1%
- viability, T/C [22]: 82.4%
- viability, T/C [23]: 59.3%
- viability, T/C [24]: 82.3%
- viability, T/C [34]: 71.6%
- viability, T/C [26]: 0.19%
- viability, T/C [27]: 0.29%
- viability, T/C [28]: 0.18%
- viability, T/C [29]: 0.17%
- viability, T/C [30]: 0.17%
- viability, T/C [35]: 0.22%
